Entries after “also recorded” stand apart in the source; their conditions may differ. Ends that are not written are not given here.
How the values were obtained:
E. coli = test: Kill or inhibit growth/proliferation; morphology, biofilm and growth disruption (Tables 5, 6); format: cell-based, Escherichia coli; set-up: key: A: Peptide aggregates; B: Less hyphal formation; Clumps; Diffuse clumps and small polyps; F: Diffuse growth; H: Thin; I: Growth inhibition; Microcolony formation; Rippled; Small polyps; Thick; W: Halo formation on top, microlonies on bottom; note: test concentration or dose not given here
microorganisms = test: Peptides having multiple activities (targeting/binding, antimicrobial, growth or phenotype altering)
Text: In certain embodiments, peptides described herein can have multiple activities. Thus for example, a peptide can have both binding/targeting activity and antimicrobial activity. Such peptides can be used, e.g., in a chimeric construct, for any or all of these properties. Thus, for example, a peptide designated “B” in Table 8 can be used as a targeting peptide. If it is also designated G or M it can also be used for antimicrobial activity.

S. pneumoniae = test: Kill or inhibit growth/proliferation; morphology, biofilm and growth disruption (Tables 5, 6); format: cell-based, Streptococcus pneumoniae; set-up: key: A: Peptide aggregates; B: Less hyphal formation; Clumps; Diffuse clumps and small polyps; F: Diffuse growth; H: Thin; I: Growth inhibition; Microcolony formation; Rippled; Small polyps; Thick; W: Halo formation on top, microlonies on bottom; note: test concentration or dose not given here
MRSA = test: as above; format: cell-based, Methicillin-resistant Staphylococcus aureus; set-up: key: A: Peptide aggregates; B: Less hyphal formation; Clumps; Diffuse clumps and small polyps; F: Diffuse growth; H: Thin; I: Growth inhibition; Microcolony formation; Rippled; Small polyps; Thick; W: Halo formation on top, microlonies on bottom
[1] = test system: microorganisms (e.g., bacteria, yeasts, fungi); test: Targeting peptide binding to target microorganisms (Table 3); settings: microorganism(s) the targeting peptide binds, preferably 1x PBS
S. epidermidis = test: Kill or inhibit growth/proliferation; morphology, biofilm and growth disruption (Tables 5, 6); format: cell-based, Staphylococcus epidermidis; set-up: key: A: Peptide aggregates; B: Less hyphal formation; Clumps; Diffuse clumps and small polyps; F: Diffuse growth; H: Thin; I: Growth inhibition; Microcolony formation; Rippled; Small polyps; Thick; W: Halo formation on top, microlonies on bottom; note: test concentration or dose not given here
E. faecalis = test: as above; format: cell-based, Enterococcus faecalis; set-up: key: A: Peptide aggregates; B: Less hyphal formation; Clumps; Diffuse clumps and small polyps; F: Diffuse growth; H: Thin; I: Growth inhibition; Microcolony formation; Rippled; Small polyps; Thick; W: Halo formation on top, microlonies on bottom; note: test concentration or dose not given here
[2] = peptide binding conducted in aqueous buffers varied by peptide solubility
[3] = binding in aqueous buffers depending on peptide solubility
Throughout, for Organism, effect: test concentration or dose not given here.

Row | Substance | Organism, effect (E. coli) | Activities (microorganisms) | Organism, effect (S. pneumoniae) | Organism, effect (MRSA) | Target(s) [1, 2] | Organism, effect (S. epidermidis) | Organism, effect (E. faecalis) | Target(s) [1, 3]
1 | PF-540: peptide having multiple activities (chain 1 KSILILIKVIFIGQTTIIL; chain 2 KSILILIKVIFIGQTTIIL; Peptide with targeting and/or antimicrobial activity) | E. coli (R) | G B | S. pneumoniae (R) | MRSA (H) | C. albicans | S. epidermidis (H) |  | 
2 | PF-376: peptide having multiple activities (chain 1 MTVFEALMLAIAFATLIVKISNKNDKK; chain 2 MTVFEALMLAIAFATLIVKISNKNDKK; Peptide with targeting and/or antimicrobial activity) | E. coli (C) | G B |  | MRSA (C) |  | S. epidermidis (C) | E. faecalis (C) | 
3 | PF-379: peptide having multiple activities (chain 1 VFVVLFIIYLASKLLTKLFPIKK; chain 2 VFVVLFIIYLASKLLTKLFPIKK; Peptide with targeting and/or antimicrobial activity) | E. coli (C) | G B |  | MRSA (C) |  | S. epidermidis (C) | E. faecalis (C) | 
4 | PF-427: peptide having multiple activities (YVLEYHGLRATQDVDAFMAL; Peptide with targeting and/or antimicrobial activity) | E. coli (C) | G B | S. pneumoniae (R) | MRSA (C) | M. luteus; also recorded: P. aeruginosa; also recorded: C. albicans; also recorded: C. jejuni |  | E. faecalis (C) | 
5 | PF-370: peptide having multiple activities (chain 1 VIFLHKESGNLKEIFY; chain 2 VIFLHKESGNLKEIFY; Peptide with targeting and/or antimicrobial activity) | E. coli (R) | G B |  | MRSA (C) |  | S. epidermidis (C) |  | S. epidermidis; also recorded: E. coli; also recorded: P. aeruginosa; also recorded: E. faecalis; also recorded: C. jejuni
6 | PF-386: peptide having multiple activities (chain 1 FTLTLITTIVAILNYKDKKK; chain 2 FTLTLITTIVAILNYKDKKK; Peptide with targeting and/or antimicrobial activity) | E. coli (C) | G B |  | MRSA (C) |  | S. epidermidis (C) | E. faecalis (C) | 
7 | PF-350: peptide having multiple activities (LAVILRAIVY; Peptide with targeting and/or antimicrobial activity) | E. coli (C) | G B |  | MRSA (C) |  | S. epidermidis (C) |  | S. epidermidis; also recorded: E. coli; also recorded: E. faecalis; also recorded: C. jeikeium; also recorded: C. jejuni
8 | PF-178: peptide having multiple activities (EVYSSPTNNVAITVQNN; Peptide with targeting and/or antimicrobial activity) | E. coli (C) | G B | S. pneumoniae (D) | MRSA (M) |  | S. epidermidis (D) |  | 
9 | PF-398: peptide having multiple activities (ILVVLAGILLVVLSYVGISKFKMNC; Peptide with targeting and/or antimicrobial activity) | E. coli (C) | G B |  | MRSA (C) |  | S. epidermidis (C) | E. faecalis (C) | 
10 | PF-395: peptide having multiple activities (YCVPLGNMGNMNNKIW; Peptide with targeting and/or antimicrobial activity) | E. coli (R) | G B |  | MRSA (C) | S. epidermidis; also recorded: E. coli; also recorded: P. aeruginosa; also recorded: S. pneumoniae; also recorded: E. faecalis; also recorded: C. jeikeium; also recorded: C. jejuni | S. epidermidis (C) |  | 
11 | PF-532 (KFIYKYKLSFIIYKILIQTLTMELNK; Peptide with targeting and/or antimicrobial activity) | E. coli (C) |  | S. pneumoniae (C) | MRSA (C) |  |  | E. faecalis (C) | 
12 | PF-374: peptide having multiple activities (chain 1 HLFFVKGMFILCQKNQINDE; chain 2 HLFFVKGMFILCQKNQINDE; Peptide with targeting and/or antimicrobial activity) | E. coli (C) | G B |  | MRSA (M) |  | S. epidermidis (C) | E. faecalis (C) | 
13 | PF-413: peptide having multiple activities (TFAGSIKIGVPDLVHVTFNCKR; Peptide with targeting and/or antimicrobial activity) | E. coli (S) | G B |  | MRSA (C) | P. aeruginosa; also recorded: C. albicans; also recorded: C. jejuni | S. epidermidis (C) |  | 
14 | PF-347: peptide having multiple activities (GIFTGVTVVVSLKHC; Peptide with targeting and/or antimicrobial activity) | E. coli (C) | G B |  | MRSA (C) |  | S. epidermidis (C) | E. faecalis (C) | 
15 | PF-453: peptide having multiple activities (chain 1 IIQDIAHAFGY; chain 2 IIQDIAHAFGY; Peptide with targeting and/or antimicrobial activity) | E. coli (C) | G B | S. pneumoniae (C) | MRSA (C) | M. luteus; also recorded: E. coli; also recorded: P. aeruginosa; also recorded: S. pneumoniae; also recorded: E. faecalis; also recorded: C. jeikeium; also recorded: C. jejuni | S. epidermidis (C) |  | 
16 | PF-478: peptide having multiple activities (chain 1 HLFILKSHLKPFPPFRYTYD; chain 2 HLFILKSHLKPFPPFRYTYD; Peptide with targeting and/or antimicrobial activity) | E. coli (C) | G B | S. pneumoniae (C) | MRSA (H) |  | S. epidermidis (C) |  | 
17 | PF-519: peptide having multiple activities (chain 1 YLVYSGVLATAAAF-NH2; chain 2 YLVYSGVLATAAAF-NH2) | E. coli (R) | G B | S. pneumoniae (S) | MRSA (C) | M. luteus; also recorded: E. faecalis; also recorded: C. jeikeium |  | E. faecalis (C) | 
18 | PF-619: peptide having multiple activities (WSRVPGHSDTGWKVWHRW; Peptide with targeting and/or antimicrobial activity) | E. coli (C) | G B | S. pneumoniae (C) | MRSA (M) |  | S. epidermidis (M) |  | 
19 | PF-514: peptide having multiple activities (chain 1 QRFYKLFYHIDLTNEQALKLFQVK; chain 2 QRFYKLFYHIDLTNEQALKLFQVK; Peptide with targeting and/or antimicrobial activity) | E. coli (R) | G B | S. pneumoniae (M) |  | S. epidermidis and E. coli and P. aeruginosa and C. albicans and MRSA and S. pneumoniae and E. faecalis and C. jeikeium | S. epidermidis (C) | E. faecalis (C) | 
